pEC50: −log10 of the molar value.
Key:
[1] = Cytotoxicity in HepG2 cells, Resazurin viability assay; conditions: human
HBV [2] = experiment: Anti-HBV activity, HepG2.2.15 stable transfected cell line, HBV DNA from secreted virions by realtime PCR; format: cell-based; conditions: for pEC50: HepG2.2.15 cells, 6 days of treatment, HBV DNA from secreted virions, read-out: HepG2 2.15 EC50
HBV [3] = experiment: Anti-HBV activity, HepG2.117 inducibly HBV producing cell line (Tet-off), intracellular HBV DNA by realtime PCR; format: cell-based; conditions: Hepatitis B virus, HepG2.117, 72 h; for pEC50: HepG2.117 cells, 3 days of treatment, intracellular HBV DNA, read-out: HepG2 117 EC50
[4] = HepG2 cells, HepG2 4 days CC50 (μM), incubated for 4 days, Resazurin assay
[5] = Hepatitis B virus, HepG2.2.15, 144 h

Row | SMILES | CC50 at 4 days [1, 4] | pEC50 (HBV [2]; [5]) | pEC50 (HBV [3]) | pEC50 (HBV [2]) | CC50 at 4 days [1] | EC50 (HBV [2]; Hepatitis B virus, HepG2.2.15, 144 h, read-out: HepG2 2.15 EC50 (μM)) | EC50 (HBV [3]; read-out: HepG2 117 EC50 (μM))
1 | Cn1cc(S(=O)(=O)NC2(C(F)(F)F)CCCC2)c(F)c1C(=O)Nc1ccc(F)c(C#N)c1 [Compound 281, N-(3-cyano-4-fluoro-phenyl)-3-fluoro-1-methyl-4-[[1-(trifluoro-methyl)cyclopentyl]sulfamoyl]pyrrole-2-carboxamide] | > 25 µM | > 8.40 | 8.15 |  |  |  | 
2 | C[C@@H](NS(=O)(=O)c1cc(C(=O)Nc2cccc(F)c2F)n(C)c1)C(F)(F)F [Compound 203, N-(2,3-Difluorophenyl)-1-methyl-4-{[(1R)-2,2,2-trifluoro-1-methyl-ethyl]sulfamoyl}-1H-pyrrole-2-carboxamide] | > 25 µM | 6.42 | 6.33 |  |  |  | 
3 | Cn1cc(S(=O)(=O)NC(C)(C)CF)cc1C(=O)Nc1cc(F)c(F)c(Cl)c1 [Compound 207, N-(3-chloro-4,5-difluoro-phenyl)-4-[(2-fluoro-1,1-dimethyl-ethyl)sulfamoyl]-1-methyl-pyrrole-2-carboxamide] | > 25 µM | 7.30 | 6.85 |  |  |  | 
4 | Cc1c(S(=O)(=O)N[C@@H](C)C(F)(F)F)cn(C)c1C(=O)Nc1ccc(F)c(Cl)c1 [Compound 147, N-(3-Chloro-4-fluorophenyl)-1,3-dimethyl-4-{[(1S)-2,2,2-trifluoro-1-methylethyl]sulfamoyl}-1H-pyrrole-2-carboxamide] | > 25 µM | 7.10 | 7.40 |  |  |  | 
5 | CNC(=O)C(C)(C)NS(=O)(=O)c1cc(C(=O)Nc2ccc(F)c(C)c2)n(C)c1 [Compound 62, 4-[[1,1-dimethyl-2-(methylamino)-2-oxo-ethyl]sulfamoyl]-N-(4-fluoro-3-methyl-phenyl)-1-methyl-pyrrole-2-carboxamide] | > 25 µM | 6.57 | 6.85 |  |  |  | 
6 | CCC(C)(NS(=O)(=O)c1cc(C(=O)Nc2cc(F)c(F)c(Cl)c2)n(C)c1)C(F)(F)F (single isomer, unassigned) [Compound 165a, N-(3-chloro-4,5-difluoro-phenyl)-1-methyl-4-[[1-methyl-1-(trifluoro-methyl)propyl]sulfamoyl]pyrrole-2-carboxamide] | 9.3 µM | 6.82 | 7.40 |  |  |  | 
7 | CC(C)NS(=O)(=O)c1cn(C)c(C(=O)Nc2ccc(F)c(C#N)c2)c1C#N [Compound 216, 3-Cyano-N-(3-cyano-4-fluorophenyl)-1-methyl-4-[(1-methylethyl)sulfamoyl]-1H-pyrrole-2-carboxamide] | > 25 µM | 6.74 | 6.34 |  |  |  | 
8 | Cn1cc(S(=O)(=O)NCC(F)F)cc1C(=O)Nc1cc(F)c(F)c(Cl)c1 [Compound 130, N-(3-Chloro-4,5-difluorophenyl)-4-[(2,2-difluoroethyl)sulfamoyl]-1-methyl-1H-pyrrole-2-carboxamide] | > 25 µM | 7.05 | 6.82 |  |  |  | 
9 | Cn1cc(S(=O)(=O)NC2(C(F)(F)F)CC2)cc1C(=O)Nc1ccc(F)c(Cl)c1F [Compound 253, N-(3-chloro-2,4-difluoro-phenyl)-1-methyl-4-{[1-(trifluoromethyl)-cyclopropyl]sulfamoyl}-1H-pyrrole-2-carboxamide] | > 25 µM | 8.00 | 8.00 |  |  |  | 
10 | CCC(C)(NS(=O)(=O)c1cc(C(=O)Nc2ccc(F)c(Cl)c2F)n(C)c1)C(F)(F)F (stereo not drawn) [Compound 257, N-(3-chloro-2,4-difluoro-phenyl)-1-methyl-4-{[1-methyl-1-(trifluoro-methyl)propyl]sulfamoyl}-1H-pyrrole-2-carboxamide] | > 25 µM | 7.10 | 7.05 |  |  |  | 
11 | C[C@@H](NS(=O)(=O)c1cc(C(=O)Nc2c(F)ccc(Cl)c2F)n(C)c1)C(F)(F)F [Compound 204, N-(3-Chloro-2,6-difluorophenyl)-1-methyl-4-{[(1R)-2,2,2-trifluoro-1-methylethyl]sulfamoyl}-1H-pyrrole-2-carboxamide] | > 25 µM | 6.19 | 6.21 |  |  |  | 
12 | Cc1c(S(=O)(=O)N[C@H](C)C(F)(F)F)cc(C(=O)Nc2cc(F)c(F)c(Cl)c2)n1C [Compound 137, N-(3-Chloro-4,5-difluorophenyl)-1,5-dimethyl-4-{[(1R)-2,2,2-trifluoro-1-methylethyl]sulfamoyl}-1H-pyrrole-2-carboxamide] | 16.5 µM | 7.52 | 7.40 |  |  |  | 
13 | CC(CC(F)(F)F)NS(=O)(=O)c1cc(C(=O)Nc2cc(F)c(F)c(Cl)c2)n(C)c1 (single isomer, unassigned) [Compound 169a, N-(3-Chloro-4,5-difluorophenyl)-1-methyl-4-[(3,3,3-trifluoro-1-methylpropyl)sulfamoyl]-1H-pyrrole-2-carboxamide] | 16.1 µM |  | 7.30 | 6.85 |  |  | 
14 | Cn1cc(S(=O)(=O)NC2(C)COC2)c(F)c1C(=O)Nc1ccc(F)c(C#N)c1 [Compound 113, N-(3-cyano-4-fluoro-phenyl)-3-fluoro-1-methyl-4-[(3-methyloxetan-3-yl)sulfamoyl]pyrrole-2-carboxamide] | > 25 µM | 7.52 | 7.70 |  |  |  | 
15 | C[C@@H](NS(=O)(=O)c1cc(C(=O)Nc2ccc(F)c(Br)c2)n(C)c1)C(F)(F)F [Compound 124, N-(3-Bromo-4-fluorophenyl)-1-methyl-4-{[(1R)-2,2,2-trifluoro-1-methylethyl]sulfamoyl}-1H-pyrrole-2-carboxamide] | > 25 µM | 7.40 | 7.40 |  |  |  | 
16 | CC(C)NS(=O)(=O)c1cn(C)c(C(=O)Nc2ccc(F)c(C#N)c2)c1F [Compound 171, N-(3-Cyano-4-fluorophenyl)-3-fluoro-1-methyl-4-[(1-methylethyl)sulfamoyl]-1H-pyrrole-2-carboxamide] | > 25 µM | 7.70 | 7.70 |  |  |  | 
17 | Cc1c(S(=O)(=O)N[C@H](C)C(F)(F)F)cc(C(=O)Nc2ccc(F)c(F)c2)n1C [Compound 139, N-(3,4-Difluorophenyl)-1,5-dimethyl-4-{[(1R)-2,2,2-trifluoro-1-methylethyl]sulfamoyl}-1H-pyrrole-2-carboxamide] | > 25 µM | 7.30 | 7.52 |  |  |  | 
18 | Cc1cc(NC(=O)c2cc(S(=O)(=O)NC(C)(C)C(=O)N(C)C)cn2C)ccc1F [Compound 63, 4-[[2-(dimethylamino)-1,1-dimethyl-2-oxo-ethyl]sulfamoyl]-N-(4-fluoro-3-methyl-phenyl)-1-methyl-pyrrole-2-carboxamide] | > 25 µM | 7.22 | 7.40 |  |  |  | 
19 | Cn1cc(S(=O)(=O)NC2(C)COC2)c(F)c1C(=O)Nc1ccc(F)c(Br)c1 [Compound 106, N-(3-Bromo-4-fluorophenyl)-3-fluoro-1-methyl-4-[(3-methyloxetan-3-yl)sulfamoyl]-1H-pyrrole-2-carboxamide] | > 25 µM | 8.00 | 8.00 |  |  |  | 
20 | C[C@@H](NS(=O)(=O)c1cn(C2CC2)c(C(=O)Nc2ccc(F)c(C#N)c2)c1Cl)C(F)(F)F [Compound 305, 3-chloro-N-(3-cyano-4-fluoro-phenyl)-1-cyclopropyl-4-[[(1R)-2,2,2-trifluoro-1-methyl-ethyl]sulfamoyl]pyrrole-2-carboxamide] | > 25 µM | 6.77 | 6.46 |  |  |  | 
21 | C[C@@H](NS(=O)(=O)c1cc(C(=O)Nc2cccc(C#N)c2F)n(C)c1)C(F)(F)F [Compound 160, N-(3-Cyano-2-fluorophenyl)-1-methyl-4-{[(1R)-2,2,2-trifluoro-1-methylethyl]sulfamoyl}-1H-pyrrole-2-carboxamide] | > 25 µM | 6.80 | 6.89 |  |  |  | 
22 | COC(=O)C(C)(C)NS(=O)(=O)c1cc(C(=O)Nc2ccc(F)c(C)c2)n(C)c1 [Compound 49, methyl 2-[[5-[(4-fluoro-3-methyl-phenyl)carbamoyl]-1-methyl-pyrrol-3-yl]sulfonylamino]-2-methyl-propanoate] | > 25 µM | 7.15 | 7.70 |  |  |  | 
23 | Cn1cc(S(=O)(=O)NC2(C)COC2)cc1C(=O)Nc1ccc(C#N)c(C(F)(F)F)c1 [Compound 51, N-[4-cyano-3-(trifluoromethyl)phenyl]-1-methyl-4-[(3-methyloxetan-3-yl)-sulfamoyl]-1H-pyrrole-2-carboxamide] |  |  |  |  | > 25 µM | > 1 µM | > 1 µM
24 | Cc1c(S(=O)(=O)N[C@H](C)C(F)(F)F)cc(C(=O)Nc2ccc(F)c(C(F)(F)F)c2)n1C [Compound 142, N-[4-Fluoro-3-(trifluoromethyl)phenyl]-1,5-dimethyl-4-{[(1R)-2,2,2-trifluoro-1-methylethyl]sulfamoyl}-1H-pyrrole-2-carboxamide] | > 25 µM | 6.82 | 6.38 |  |  |  | 
25 | Cc1cc(F)cc(NC(=O)c2cc(S(=O)(=O)N[C@H]3CCOC3)cn2C)c1 [Compound 32, N-(3-fluoro-5-methyl-phenyl)-1-methyl-4-[[(3S)-tetrahydrofuran-3-yl]-sulfamoyl]pyrrole-2-carboxamide] | > 25 µM | 6.74 | 6.47 |  |  |  | 
26 | Cn1cc(S(=O)(=O)NC(C)(C)C(F)(F)F)cc1C(=O)Nc1cc(Cl)c(F)c(Cl)c1 [Compound 163, N-(3,5-Dichloro-4-fluorophenyl)-1-methyl-4-[(2,2,2-trifluoro-1,1-dimethylethyl)sulfamoyl]-1H-pyrrole-2-carboxamide] | 14.3 µM | 6.74 | 6.96 |  |  |  | 

Reference: patent publication US9884818B2, “Sulphamoylpyrrolamide derivatives and the use thereof as medicaments for the treatment of hepatitis B” (Janssen Sciences Ireland UC, priority 2013, dated 2018)
